Data taken from patent US20050075501A1, “Ammonium compounds bearing and electrophilic fluorine, reagent containing same, method using same and synthesis method for obtaining them” (priority 2000, published 2005).

Assay: Solubility of N-fluorocinchonidinium tetrafluoroborate in solvents
Format: physicochemical
Conditions: acetonitrile
Procedure: ^19F NMR (282 MHz, CD3CN/CCl3F): 37.71 (s, 1F); −154.52 (s, 1F); −154.60 (s, 3F). (CD3CN/TFA): 118.35 (s, 1F); −74.12 (s, 1F); −74.17 (s, 3F). FTIR: (ν N—F) 927 cm^−1 Melting point: 189+/−2° C. […] MS (FAB^+, glycerol) 313 (cation^+, 18%) 295 (cation-H2O, 100) . TLC: acetone/heptane: 9/1; Rf=0.3.

In the case of C=CC1C[N+]2(F)CCC1CC2C(O)c1ccnc2ccccc12.F[B-](F)(F)F (stereo not shown) [N-fluorocinchonidinium Tetrafluoroborate], the Solubility is reported as “ca. 200 mg/ml”.
